Values joined by “and” are separate entries in the source; they are usually repeats but may differ in a detail not shown here. Equal values may be shown once. Read-outs that look alike come from different tables or passages of the source.

The results in this text go back to patent publication US8999957B2, “Heterocyclic compounds as ERK inhibitors” (Merck Sharp & Dohme Corp., priority 2010, dated 2015).

The assay concerns the target fully phosphorylated, mouse aERK2 enzyme (Mus musculus (Mouse), UniProt P63085). The assay can be described thus: Active ERK2 (aERK) IMAP-FP assay, condition 2. It is filed as biochemical. The protocol:
Active ERK2 (aERK) Assay: (Unless Indicated Otherwise, the Data Provided for aERK was obtained using Condition 1)
Activated ERK2 activity was determined in an IMAP-FP assay (Molecular Devices). […] Phosphorylation reactions were allowed to proceed for 40-45 minutes and were immediately quenched by the addition of 60 μL IMAP detection beads (1:1000 dilutions) in IMAP binding buffer. Plates were read on EnVision reader after 30 minutes binding equilibration.

[1] abbreviates: aERK assay condition 2, 30 uM ATP, read-out: aERK IC50.
Where [2] appears, read: active ERK2, read-out: aErk2 Ic50.

Sequence of fully phosphorylated, mouse aERK2 enzyme (P63085 whole entry): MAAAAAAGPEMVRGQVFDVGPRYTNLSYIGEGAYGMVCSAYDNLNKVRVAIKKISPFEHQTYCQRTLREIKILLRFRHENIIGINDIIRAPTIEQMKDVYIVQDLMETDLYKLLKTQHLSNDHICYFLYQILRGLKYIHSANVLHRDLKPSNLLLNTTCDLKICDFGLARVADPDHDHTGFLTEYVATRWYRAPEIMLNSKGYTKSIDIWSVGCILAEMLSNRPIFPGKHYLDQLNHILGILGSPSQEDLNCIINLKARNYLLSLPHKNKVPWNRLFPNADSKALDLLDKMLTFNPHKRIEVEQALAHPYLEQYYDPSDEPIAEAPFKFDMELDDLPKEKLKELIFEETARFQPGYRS

As to `COc1cccc(F)c1CN1C[C@H](NC(=O)c2ccc3[nH]nc(-c4ccnc(C)c4)c3c2)CC[C@H]1C(=O)NC1CC1` [N-[(3R,6S)-6-(cyclopropylcarbamoyl)-1-(2-fluoro-6-methoxybenzyl)piperidin-3-yl]-3-(2-methylpyridin-4-yl)-1H-indazole-5-carboxamide], the IC50 (in general, the point on the concentration scale where inhibition reaches its midpoint) under setting [1] is 3.4 nM. The same measure, in the same setting: in the case of `CNC(=O)C(c1ccccc1F)N1CCC[C@@H](NC(=O)c2ccc3[nH]nc(-c4ccncc4)c3c2)C1` (single isomer, unassigned) [drawing 502, N-((R)-1-((S or R)-1-(2-fluorophenyl)-2-(methyl-amino)-2-oxoethyl)piperidin-3-yl)-3-(pyridin-4-yl)-1H-indazole-5-carboxamide] it was 4.6 nM.

Turning to `COc1cccc(F)c1CN1C[C@H](NC(=O)c2ccc3[nH]nc(-c4ccnc(C)c4)c3c2)CC[C@H]1C(=O)NC[C@H]1CC[C@H](O)C1` [N-[(3R,6S)-1-(2-fluoro-6-methoxybenzyl)-6-({[(1S,3S)-3-hydroxycyclopentyl]methyl}carbamoyl)piperidin-3-yl]-3-(2-methylpyridin-4-yl)-1H-indazole-5-carboxamide], the IC50 under setting [1] worked out at 1.3 nM. For `CCN(CC)C(=O)[C@@H]1CC[C@@H](NC(=O)c2ccc3[nH]nc(-c4ccnnc4)c3c2)CN1Cc1c(F)cccc1OC` [N-[(3R,6S)-6-(diethylcarbamoyl)-1-(2-fluoro-6-methoxybenzyl)piperidin-3-yl]-3-pyridazin-4-yl-1H-indazole-5-carboxamide], the IC50 under setting [2] is 137 nM. Still for that read-out and setting: in the case of `CCNC(=O)N1CCN(C(=O)[C@@H]2CC[C@@H](NC(=O)c3ccc4[nH]nc(-c5ccnc(C)c5)c4c3)CN2Cc2c(F)cccc2OC)CC1` [N-[(3R,6S)-6-{[4-(ethylcarbamoyl)piperazin-1-yl]carbonyl}-1-(2-fluoro-6-methoxy-benzyl)piperidin-3-yl]-3-(2-methylpyridin-4-yl)-1H-indazole-5-carboxamide] it was 16.4 nM.

On to `COc1cccc(F)c1CN1CCC[C@@H](NC(=O)c2ccc3[nH]nc(C4=CCOCC4)c3c2)C1` [3-(3,6-dihydro-2H-pyran-4-yl)-N-[(3R)-1-(2-fluoro-6-methoxy-benzyl)piperidin-3-yl]-1H-indazole-5-carboxamide], for which the IC50 under setting [1] worked out at 1.3 nM. Turning to `CNC(=O)[C@@H]1CC[C@@H](NC(=O)c2ccc3[nH]nc(-c4ccnc(C)c4)c3c2)CN1Cc1c(F)cccc1OC` [N-[(3R,6S)-1-(2-fluoro-6-methoxybenzyl)-6-(methylcarbamoyl)piperidin-3-yl]-3-(2-methylpyridin-4-yl)-1H-indazole-5-carboxamide], the IC50 under setting [2] is 2.7 nM. As to `COc1cccc(F)c1CN1C[C@H](NC(=O)c2ccc3[nH]nc(-c4ccnc(C)c4)c3c2)CC[C@H]1C(=O)Nc1ccc(C)cc1C` [N-[(3R,6S)-6-[(2,4-dimethylphenyl)carbamoyl]-1-(2-fluoro-6-methoxybenzyl)piperidin-3-yl]-3-(2-methylpyridin-4-yl)-1H-indazole-5-carboxamide], the IC50 under setting [1] stood at 54.8 nM. Same read-out and setting: in the case of `COc1cccc(F)c1CN1C[C@H](NC(=O)c2ccc3[nH]nc(-c4ccnc(C)c4)c3c2)CC[C@H]1C(=O)NOCC1CC1` [N-[(3R,6S)-6-[(cyclopropylmethoxy)carbamoyl]-1-(2-fluoro-6-methoxybenzyl)piperidin-3-yl]-3-(2-methylpyridin-4-yl)-1H-indazole-5-carboxamide] it was 0.6 nM. Turning to `COc1cccc(F)c1CN1C[C@H](NC(=O)c2ccc3[nH]nc(-c4ccnc(C)c4)c3c2)CC[C@H]1C(=O)N1CCC(Cl)CC1` [N-[(3R,6S)-6-[(4-chloropiperidin-1-yl)carbonyl]-1-(2-fluoro-6-methoxybenzyl)-piperidin-3-yl]-3-(2-methylpyridin-4-yl)-1H-indazole-5-carboxamide], the IC50 under setting [2] was 48.3 nM.

Regarding `[2H]C([2H])([2H])Oc1cccc(F)c1CN1C[C@H](NC(=O)c2ccc3[nH]nc(-c4ccc5nc(C)sc5c4)c3c2)CC[C@H]1C(=O)N1CCN(C(C)=O)CC1`, under setting [2], the IC50 is 63.1 nM. Same read-out and setting: in the case of `COc1cccc(F)c1CN1C[C@H](NC(=O)c2ccc3[nH]nc(-c4ccnc(C)c4)c3c2)CC[C@H]1C(=O)NCCCNC(=O)OC(C)(C)C` [tert-butyl [3-({[(2S,5R)-1-(2-fluoro-6-methoxybenzyl)-5-({[3-(2-methylpyridin-4-yl)-1H-indazol-5-yl]carbonyl}amino)piperidin-2-yl]carbonyl}amino)propyl]carbamate] it was 16.9 nM; in that of `CCCCN(CCCC)C(=O)[C@@H]1CC[C@@H](NC(=O)c2ccc3[nH]nc(-c4ccnc(C)c4)c3c2)CN1Cc1c(F)cccc1OC` [N-[(3R,6S)-6-(dibutylcarbamoyl)-1-(2-fluoro-6-methoxybenzyl)piperidin-3-yl]-3-(2-methylpyridin-4-yl)-1H-indazole-5-carboxamide], 502 nM. As to `COc1cccc(F)c1CN1C[C@H](NC(=O)c2ccc3[nH]nc(-c4ccnc(C)c4)c3c2)CC[C@H]1C(=O)Nc1cccnc1` [N-[(3R,6S)-1-(2-fluoro-6-methoxybenzyl)-6-(pyridin-3-ylcarbamoyl)piperidin-3-yl]-3-(2-methylpyridin-4-yl)-1H-indazole-5-carboxamide], the IC50 under setting [1] was found to be 4.1 nM.

Consider `COc1cccc(F)c1CN1C[C@H](NC(=O)c2ccc3[nH]nc(-c4ccnc(C)c4)c3c2)CC[C@H]1C(=O)N1CCN(C(=O)OC2CCOCC2)CC1` [tetrahydro-2H-pyran-4-yl 4-{[(2S,5R)-1-(2-fluoro-6-methoxybenzyl)-5-({[3-(2-methylpyridin-4-yl)-1H-indazol-5-yl]carbonyl}amino)piperidin-2-yl]carbonyl}piperazine-1-carboxylate], for which the IC50 under setting [2] was 18.8 nM. The same measure, in the same setting: in the case of “N-{(3R,6S)-1-(2-fluoro-6-methoxybenzyl)-6- [(2-methylhydrazino)carbonyl]piperidin-3- yl}-3-(2-methylpyridin-4-yl)-1H-indazole-5- carboxamide” it was 20.2 nM and 30 nM; in that of `COc1cccc(F)c1CN1C[C@H](NC(=O)c2ccc3[nH]nc(-c4ccnc(C)c4)c3c2)CC[C@H]1C(=O)NOC(C)(C)C` [N-[(3R,6S)-6-(tert-butoxycarbamoyl)-1-(2-fluoro-6-methoxybenzyl)piperidin-3-yl]-3-(2-methylpyridin-4-yl)-1H-indazole-5-carboxamide], 26.2 nM. Same read-out and setting: in the case of `COc1cccc(F)c1CN1C[C@H](NC(=O)c2ccc3[nH]nc(-c4ccnc(C)c4)c3c2)CC[C@H]1C(N)=O` [N-[(3R,6S)-6-carbamoyl-1-(2-fluoro-6-methoxybenzyl)piperidin-3-yl]-3-(2-methylpyridin-4-yl)-1H-indazole-5-carboxamide] it was 1 nM; in that of `COc1cccc(F)c1CN1C[C@H](NC(=O)c2ccc3[nH]nc(-c4ccncc4)c3c2)CC[C@H]1C(N)=O` [N-[(3R,6S)-6-carbamoyl-1-(2-fluoro-6-methoxybenzyl)piperidin-3-yl]-3-pyridin-4-yl-1H-indazole-5-carboxamide], 1.7 nM. The same measure, in the same setting: in the case of `Cc1cc(-c2n[nH]c3ccc(C(=O)N[C@@H]4CC[C@@H](C(=O)N5CC(F)(F)C5)N(Cc5cccs5)C4)cc23)ccn1` [N-[(3R,6S)-6-[(3,3-difluoroazetidin-1-yl)carbonyl]-1-(thiophen-2-ylmethyl)-piperidin-3-yl]-3-(2-methylpyridin-4-yl)-1H-indazole-5-carboxamide] it was 25.8 nM; in that of `COc1cccc(F)c1CN1C[C@H](NC(=O)c2ccc3[nH]nc(-c4ccnc(C)c4)c3c2)CC[C@H]1C(=O)N1CC(F)(F)C1` [N-[(3R,6S)-6-[(3,3-difluoroazetidin-1-yl)carbonyl]-1-(2-fluoro-6-methoxybenzyl)-piperidin-3-yl]-3-(2-methylpyridin-4-yl)-1H-indazole-5-carboxamide], 14.8 nM and 10.4 nM; in that of `CCNC(=O)[C@@H]1CC[C@@H](NC(=O)c2ccc3[nH]nc(-c4ccncc4)c3c2)CN1Cc1ccccc1` [N-[(3R,6S)-1-benzyl-6-(ethylcarbamoyl)-piperidin-3-yl]-3-pyridin-4-yl-1H-indazole-5-carboxamide], 48.3 nM. As for `COc1ccc(N(C)C(=O)[C@@H]2CC[C@@H](NC(=O)c3ccc4[nH]nc(-c5ccnc(C)c5)c4c3)CN2Cc2c(F)cccc2OC)cc1` [N-{(3R,6S)-1-(2-fluoro-6-methoxybenzyl)-6-[(4-methoxyphenyl)(methyl)carbamoyl]piperidin-3-yl}-3-(2-methylpyridin-4-yl)-1H-indazole-5-carboxamide], the IC50 under setting [1] came out at 5.8 nM. As for `COc1cccc(F)c1CN1C[C@H](NC(=O)c2ccc3[nH]nc(-c4ccnc(C)c4)c3c2)CC[C@H]1C(=O)NCC1(CO)CCCC1` [N-[(3R,6S)-1-(2-fluoro-6-methoxybenzyl)-6-({[1-(hydroxymethyl)cyclopentyl]methyl}carbamoyl)piperidin-3-yl]-3-(2-methylpyridin-4-yl)-1H-indazole-5-carboxamide], under setting [1], the IC50 was 8.8 nM. Regarding `Cc1cc(-c2n[nH]c3ccc(C(=O)N[C@@H]4CC[C@@H](C(=O)N5CC(F)(F)C5)N(Cc5ccccc5F)C4)cc23)ccn1` [N-[(3R,6S)-6-[(3,3-difluoroazetidin-1-yl)carbonyl]-1-(2-fluorobenzyl)piperidin-3-yl]-3-(2-methylpyridin-4-yl)-1H-indazole-5-carboxamide], the IC50 under setting [2] was 56.6 nM.

For the compound `COc1cccc(F)c1CN1C[C@H](NC(=O)c2ccc3[nH]nc(-c4ccnc(C)c4)c3c2)CC[C@H]1C(=O)NC[C@@H]1CC[C@@H](O)C1` [N-[(3R,6S)-1-(2-fluoro-6-methoxybenzyl)-6-({[(1R,3R)-3-hydroxycyclopentyl]methyl}carbamoyl)piperidin-3-yl]-3-(2-methylpyridin-4-yl)-1H-indazole-5-carboxamide], under setting [1], the IC50 was 1.5 nM. Consider `COc1cccc(F)c1CN1CCC[C@@H](NC(=O)c2ccc3[nH]nc(C4=CCS(=O)(=O)CC4)c3c2)C1` [3-(1,1-dioxido-3,6-dihydro-2H-thiopyran-4-yl)-N-[(3R)-1-(2-fluoro-6-methoxy-benzyl)piperidin-3-yl]-1H-indazole-5-carboxamide], for which the 50% inhibitory concentration (IC50) under setting [1] was determined as 8.4 nM.
